Assay results as given in the NIST ThermoML archive (doi:10.1021/je060271a).

Settings: 323.15 K, Liquid, Vibrating tube method

CCCCCCCC(=O)OCC(COC(=O)CCCCCCC)(COC(=O)CCCCCCC)COC(=O)CCCCCCC [pentaerythritol tetraoctanoate]
Settings | mass density [kg/m3]
7680.3 kPa | 945.8
7700.7 kPa | 945.8
7720.9 kPa | 945.7
7748.8 kPa | 945.9
7769.4 kPa | 945.7
7790.4 kPa | 945.9
7811.3 kPa | 946
7832.2 kPa | 945.9
7857.7 kPa | 945.9
7878.8 kPa | 945.8
7900.5 kPa | 945.9
7922.1 kPa | 946
7947.7 kPa | 946
7968.9 kPa | 945.8
7990.6 kPa | 946
8017 kPa | 946
8039.8 kPa | 946
8061.6 kPa | 946.2
8084.3 kPa | 946.1
8107.1 kPa | 946.1
8134 kPa | 946.1
8156.6 kPa | 946
8179.4 kPa | 946.1
8206.5 kPa | 946
8229.4 kPa | 946.2
8252.6 kPa | 946.2
8275.8 kPa | 946.2
8303.6 kPa | 946.2
8327.1 kPa | 946.2
8355.7 kPa | 946.2
8379.5 kPa | 946.3
8404.2 kPa | 946.3
8428.3 kPa | 946.3
8452.5 kPa | 946.3
8482 kPa | 946.4
8506.8 kPa | 946.2
8531.5 kPa | 946.4
8560.6 kPa | 946.4
8585.3 kPa | 946.5
8610.8 kPa | 946.4
8640.7 kPa | 946.4
8666 kPa | 946.4
8691.5 kPa | 946.4
8722.7 kPa | 946.4
8748.4 kPa | 946.5
8774.8 kPa | 946.4
8806.4 kPa | 946.5
8832.8 kPa | 946.4
8859.7 kPa | 946.6
8886 kPa | 946.5
8918.8 kPa | 946.5
8945.9 kPa | 946.6
8972.8 kPa | 946.7
9006 kPa | 946.7
9034.1 kPa | 946.6
9062.8 kPa | 946.7
9092.9 kPa | 946.7
9121.3 kPa | 946.8
9155.1 kPa | 946.7
9183.5 kPa | 946.9
9212.7 kPa | 946.8
9247.8 kPa | 946.8
9276.8 kPa | 946.9
9311.6 kPa | 946.9
9341.2 kPa | 946.9
9371.1 kPa | 946.9
9401 kPa | 946.9
9437.9 kPa | 946.9
9469.8 kPa | 947
9503.2 kPa | 946.9
9534 kPa | 947.1
9570.9 kPa | 946.9
9602.4 kPa | 947
9633.9 kPa | 947
9665.6 kPa | 947.2
9704.2 kPa | 947.1
9736 kPa | 947.1
9774.4 kPa | 947.2
9806.9 kPa | 947.2
9834 kPa | 947.1
9860.5 kPa | 947.3
9901 kPa | 947.3
9949.2 kPa | 947.4
9984 kPa | 947.3
10026 kPa | 947.2
10059 kPa | 947.3
10090 kPa | 947.3
10128 kPa | 947.3
10160 kPa | 947.4
10192 kPa | 947.5
10231 kPa | 947.6
10264 kPa | 947.5
10297 kPa | 947.6
10337 kPa | 947.5
10372 kPa | 947.6
10405 kPa | 947.5
10435 kPa | 947.6
10467 kPa | 947.6
10494 kPa | 947.6
10520 kPa | 947.7
10553 kPa | 947.7
10580 kPa | 947.7
10608 kPa | 947.6
10643 kPa | 947.8
10672 kPa | 947.8
10695 kPa | 947.7
10719 kPa | 947.8
10739 kPa | 947.8
10759 kPa | 947.6
10779 kPa | 947.8
10802 kPa | 947.8
10822 kPa | 947.8
10847 kPa | 947.8
10867 kPa | 947.8
10887 kPa | 948
10911 kPa | 947.9
10932 kPa | 947.8
10948 kPa | 947.9
10977 kPa | 947.9
10997 kPa | 948
11019 kPa | 948.1
11040 kPa | 948.1
11065 kPa | 948
11086 kPa | 948
11111 kPa | 948
11132 kPa | 948.1
11153 kPa | 948.1
11175 kPa | 948.1
11200 kPa | 948.1
11222 kPa | 948.1
11248 kPa | 948.1
11270 kPa | 948.1
11292 kPa | 948.1
11319 kPa | 948.1
11341 kPa | 948.1
11362 kPa | 948.1
11384 kPa | 948.3
11411 kPa | 948.3
11433 kPa | 948.2
11460 kPa | 948.2
11483 kPa | 948.3
11506 kPa | 948.3
11533 kPa | 948.3
11555 kPa | 948.4
11579 kPa | 948.2
11607 kPa | 948.3
11626 kPa | 948.3
11654 kPa | 948.4
11678 kPa | 948.2
11701 kPa | 948.4
11725 kPa | 948.5
11744 kPa | 948.5
11768 kPa | 948.4
11792 kPa | 948.5
11831 kPa | 948.4
11855 kPa | 948.5
11880 kPa | 948.5
11909 kPa | 948.5
11935 kPa | 948.6
11961 kPa | 948.6
11986 kPa | 948.6
12010 kPa | 948.7
12041 kPa | 948.6
12065 kPa | 948.7
12095 kPa | 948.6
12120 kPa | 948.8
12146 kPa | 948.6
12176 kPa | 948.6
12202 kPa | 948.7
12228 kPa | 948.6
12255 kPa | 948.7
12286 kPa | 948.8
12313 kPa | 948.8
12339 kPa | 948.9
12456 kPa | 948.9
12482 kPa | 948.9
12510 kPa | 948.9
12537 kPa | 948.9
12570 kPa | 949
12598 kPa | 948.9
12626 kPa | 949
12660 kPa | 949
12688 kPa | 948.9
12716 kPa | 949
12744 kPa | 949
12777 kPa | 949
12805 kPa | 949.1
12839 kPa | 949
12868 kPa | 949.1
12897 kPa | 949.2
12932 kPa | 949.2
12961 kPa | 949.2
12990 kPa | 949.1
13026 kPa | 949.2
13056 kPa | 949.3
13080 kPa | 949.2
13104 kPa | 949.2
13134 kPa | 949.3
13170 kPa | 949.2
13212 kPa | 949.4
13248 kPa | 949.4
13279 kPa | 949.3
13310 kPa | 949.4
13347 kPa | 949.3
13378 kPa | 949.4
13409 kPa | 949.6
13447 kPa | 949.6
13479 kPa | 949.6
13511 kPa | 949.5
13543 kPa | 949.5
13581 kPa | 949.7
13614 kPa | 949.7
13652 kPa | 949.6
13685 kPa | 949.7
13717 kPa | 949.6
13756 kPa | 949.7
13790 kPa | 949.6
13823 kPa | 949.7
13863 kPa | 949.7
13897 kPa | 949.9
13932 kPa | 949.7
13965 kPa | 949.8
14007 kPa | 949.9
14041 kPa | 949.7
14076 kPa | 949.9
14118 kPa | 950
14152 kPa | 949.9
14187 kPa | 950
14230 kPa | 949.9
14266 kPa | 950
14301 kPa | 950.1
14345 kPa | 950.1
14376 kPa | 950.2
14414 kPa | 950.2
14452 kPa | 950.1
14505 kPa | 950.1
14544 kPa | 950.2
14573 kPa | 950.2
14617 kPa | 950.1
14647 kPa | 950.2
14671 kPa | 950.2
14707 kPa | 950.5
14738 kPa | 950.3
14780 kPa | 950.3
14812 kPa | 950.5
14846 kPa | 950.5
14877 kPa | 950.3
14909 kPa | 950.4
14947 kPa | 950.5
14979 kPa | 950.4
15012 kPa | 950.5
15052 kPa | 950.5
15085 kPa | 950.5
15114 kPa | 950.5
15143 kPa | 950.5
15167 kPa | 950.6
15191 kPa | 950.6
15220 kPa | 950.7
15246 kPa | 950.5
15270 kPa | 950.6
15299 kPa | 950.6
15324 kPa | 950.7
15350 kPa | 950.7
15374 kPa | 950.8
15404 kPa | 950.8
15430 kPa | 950.7
15454 kPa | 950.8
15485 kPa | 950.7
15510 kPa | 950.9
15541 kPa | 950.8
15567 kPa | 950.8
15594 kPa | 950.8
15619 kPa | 950.8
15650 kPa | 950.8
15677 kPa | 950.9
15702 kPa | 950.9
15734 kPa | 950.9
15761 kPa | 950.9
15787 kPa | 950.9
15818 kPa | 951
15845 kPa | 951.2
15872 kPa | 951
15903 kPa | 951.1
15931 kPa | 951.1
15954 kPa | 951
15980 kPa | 951.1
16008 kPa | 951.1
16046 kPa | 951.2
16073 kPa | 951.1
16106 kPa | 951.3
16134 kPa | 951.1
16161 kPa | 951.3
16194 kPa | 951.1
16222 kPa | 951.3
16245 kPa | 951.2
16273 kPa | 951.4
